Some test systems named below: U-251; HCC 2998; CAKI-1; A498; NCI-H23; OVCAR-5; NCI/ADR-RES; PC-3; KM12; A549; OVCAR-4; HCT-116; UACC-257; OVCAR-3; HCT-15; ACHN; NCI-H460; UO-31; NCI-H226; Malme-3M.
Holding throughout (assay): NCI tumour cell line growth inhibition, 48 h

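Exposure lasted 48 hours, with cells grown in 96-well plates and compounds tested at five concentrations. GI50 marks 50% less growth.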 Active and inactive are the calls of the source. Rule as the data show it: active = GI50 up to about 1.1 µM and inactive = higher.

In the case of `CN(C)C1(N(C)C)Oc2c(c(=O)n(C)c(=O)n2C)C(c2ccc(C(F)(F)F)cc2)C1(F)F` (configuration not stated), the GI50 in the assay on U-251, in the assay with HCC 2998, in the assay on CAKI-1, with A498, in the assay on NCI-H23 and with OVCAR-5 was > 100 µM (inactive) each time. Further, the GI50 in the assay on NCI/ADR-RES, in the assay on PC-3, in the assay with KM12, in the assay on A549, in the assay with OVCAR-4 and in the assay with HCT-116 was > 100 µM (inactive) each time. Moreover, the GI50 with UACC-257 is > 100 µM (inactive); in the assay with OVCAR-3, > 100 µM (inactive); with HCT-15, more than 100 µM; in the assay with ACHN, > 100 µM (inactive); in the assay on NCI-H460, > 100 µM (inactive); in the assay on UO-31, > 100 µM (inactive). In addition, the GI50 in the assay on NCI-H226 was > 100 µM (inactive).

For the compound `COC1OC(=O)C(OC)C(OC)C1OC` (configuration not stated), the GI50 with U-251, with HCC 2998, in the assay on CAKI-1, with A498, in the assay with OVCAR-5 and in the assay on NCI/ADR-RES was > 100 µM (inactive) in each case. Also, the GI50 with PC-3, in the assay on KM12, in the assay on A549, in the assay on OVCAR-4, with HCT-116 and in the assay with UACC-257 was > 100 µM (inactive) in each case. Also, the GI50 in the assay with OVCAR-3 was > 100 µM (inactive); with HCT-15, more than 100 µM; in the assay with ACHN it was > 100 µM (inactive); in the assay with NCI-H460, > 100 µM (inactive); with UO-31, > 100 µM (inactive); in the assay on NCI-H226, > 100 µM (inactive).

In the case of `CC(C)C1OC(N)=C(C#N)C1(C#N)C#N` (configuration not stated), the GI50 in the assay with U-251 was 54.1 µM (inactive); with HCC 2998 it was 24.5 µM (inactive); in the assay on CAKI-1, 3.79 µM (inactive); with A498 it was > 100 µM (inactive); in the assay on NCI-H23, 33.3 µM (inactive); with OVCAR-5, > 100 µM (inactive). The GI50 in the assay on NCI/ADR-RES was 58.1 µM (inactive); in the assay with PC-3, > 100 µM (inactive); with KM12, > 100 µM (inactive); in the assay on A549, > 100 µM (inactive); with HCT-116, 26.3 µM (inactive); in the assay with UACC-257, 17.1 µM (inactive). Moreover, the GI50 in the assay with HCT-15 was more than 10 µM; in the assay on ACHN, 36.9 µM (inactive); in the assay on UO-31, 33.1 µM (inactive); in the assay on NCI-H226, > 100 µM (inactive); with Malme-3M, > 100 µM (inactive).

On to `O=C(O)Cc1ccc(Oc2nc3ccccc3nc2C(=O)O)cc1`, for which the GI50 in the assay with U-251 is > 100 µM (inactive); in the assay with HCC 2998, > 100 µM (inactive); in the assay with CAKI-1 it was 96.8 µM (inactive); with A498, > 100 µM (inactive); with NCI-H23, > 100 µM (inactive); in the assay with OVCAR-5, > 100 µM (inactive). The GI50 in the assay with NCI/ADR-RES, with PC-3, in the assay with KM12, with A549, in the assay on OVCAR-4 and in the assay on HCT-116 was > 100 µM (inactive) each time. Also, the GI50 with UACC-257 is > 100 µM (inactive); in the assay with OVCAR-3 it was > 100 µM (inactive); with HCT-15, more than 100 µM; in the assay with ACHN, > 100 µM (inactive); with NCI-H460, > 100 µM (inactive); in the assay on UO-31, > 100 µM (inactive). The GI50 with NCI-H226 is > 100 µM (inactive).

For `O=C(NCCNCCO)N/N=C/c1ccc([N+](=O)[O-])cc1`, the GI50 with U-251 was > 100 µM (inactive); with HCC 2998, > 100 µM (inactive); in the assay with CAKI-1, > 100 µM (inactive); in the assay on A498 it was 47.4 µM (inactive); in the assay with NCI-H23, > 100 µM (inactive); with OVCAR-5 it was > 100 µM (inactive). The GI50 in the assay with NCI/ADR-RES, in the assay on PC-3, in the assay with KM12, with A549, with HCT-116 and with UACC-257 was > 100 µM (inactive) in each case. Besides, the GI50 in the assay on OVCAR-3 is > 100 µM (inactive); with HCT-15 it was more than 100 µM; in the assay with ACHN it was > 100 µM (inactive); in the assay with NCI-H460 it was > 100 µM (inactive); in the assay on UO-31, > 100 µM (inactive); with NCI-H226, > 100 µM (inactive). Moreover, the GI50 in the assay on Malme-3M was 43.8 µM (inactive).

As to `CSc1nc(-c2ccccc2)[nH]c(=O)n1`, the GI50 in the assay on U-251, with HCC 2998, with CAKI-1, with A498, with NCI-H23 and in the assay with OVCAR-5 was > 100 µM (inactive) throughout. Besides, the GI50 in the assay with NCI/ADR-RES, with PC-3, with KM12, in the assay on A549, with OVCAR-4 and with HCT-116 was > 100 µM (inactive) in each case. The GI50 is > 100 µM (inactive) with UACC-257; > 100 µM (inactive) with OVCAR-3; more than 100 µM with HCT-15; > 100 µM (inactive) with ACHN; > 100 µM (inactive) in the assay with UO-31; > 100 µM (inactive) in the assay on NCI-H226. In addition, in the assay with Malme-3M, the GI50 was 59 µM (inactive).

With `O=C(/C=C/c1ccc2ccccc2c1)NCc1ccc(C(=O)NCc2ccccc2)cc1`, the GI50 with U-251 is > 60 µM (inactive); with HCC 2998 it was > 37.2 µM (inactive); in the assay with CAKI-1, 28.3 µM (inactive); in the assay on A498, > 83.8 µM (inactive); in the assay with NCI-H23 it was > 83.4 µM (inactive); with OVCAR-5 it was > 100 µM (inactive). Also, the GI50 with NCI/ADR-RES was > 100 µM (inactive); in the assay with PC-3, > 100 µM (inactive); in the assay on KM12 it was > 100 µM (inactive); with A549 it was 65.5 µM (inactive); in the assay with OVCAR-4, 8.53 µM (inactive); in the assay on HCT-116, > 100 µM (inactive). Besides, the GI50 in the assay on UACC-257 was > 100 µM (inactive); in the assay on OVCAR-3 it was > 80.5 µM (inactive); in the assay with ACHN, > 68.7 µM (inactive); in the assay with UO-31 it was > 53.8 µM (inactive); with NCI-H226, 26.3 µM (inactive); with Malme-3M, > 35.8 µM (inactive).

Take `N=C(NCc1ccccc1)N/N=C\c1ccnc2ccccc12`: the GI50 in the assay on U-251 is 15.6 µM (inactive); in the assay with HCC 2998 it was 2.1 µM (inactive); in the assay with A498, 12.5 µM (inactive); in the assay on NCI-H23 it was 15.7 µM (inactive); with OVCAR-5, 13.4 µM (inactive); in the assay with NCI/ADR-RES, 15.8 µM (inactive). Moreover, the GI50 in the assay with PC-3 was 15.6 µM (inactive); in the assay on KM12, 15.9 µM (inactive); in the assay on A549, 15 µM (inactive); in the assay on OVCAR-4, 11.7 µM (inactive); in the assay on UACC-257, 2.35 µM (inactive); in the assay with OVCAR-3, 11.6 µM (inactive). In addition, the GI50 was 16 µM with HCT-15; 15.3 µM (inactive) with ACHN; 13.9 µM (inactive) with NCI-H460; 10.4 µM (inactive) in the assay on UO-31; 17.1 µM (inactive) with NCI-H226; 10.2 µM (inactive) with Malme-3M.

These data come from ChEMBL document CHEMBL1201862, “PubChem BioAssay data set” (2004).
